According to patent publication US20040248869A1, “Method for finding novel active ingredients having androgen-type properties” (priority 2001, published 2004):

How the values were obtained:
[1] = tested on: male adult fibroblasts; conditions: male adult fibroblasts (cultures 2-6); increase based on the blank value; average of the two measuring conditions
Method: The process may be carried out, for example, as follows: cell suspensions of human fibroblasts (embryonal cells of adult male origin) are mixed with 1 to 2 mg/ml of a collagen suspension. […] After incubation for 7 days at 27° C./5% by volume carbon dioxide in a steam-saturated atmosphere, biopsies are taken and histological sections prepared. The quantity of macromolecules formed can be determined by two different methods:
1. a general determination by coloring the glucosaminoglucans (GAGs) with PAS Alcian Blue (standard coloration) and
2. a specific immunohistochemical characterization of certain elements of the matrix by treatment with antibodies, more especially anti-chondroitin sulfate, anti-keratan sulfate, anti-heparan sulfate, anti-dermatan sulfate, anti-elastin and anti-collagen (type III).
The fibroblasts are examined with a photon microscope in regard to the coloration (PAS Alcian) and with a confocal laser microscope in regard to the immunohistology. In order to determine the quantity of dermal macromolecules formed, micrographs are taken and the zones around the fibroblasts (“perifibroblastic zones”) are analyzed. Counting is done by image analysis, i.e. by determining the perifibroblastic zones and the gray level. Both parameters are directly proportional to the synthesis of dermal macromolecules. The results are evaluated in relation to the corresponding results without addition of the active components.
The numbers represent the increase in %-rel., based on the blank value, i.e. the absence of the male sex hormones, and expressed as the average of the two measuring conditions.

[2] = tested on: genital fibroblasts; conditions: Loire et al., Sultan et al.; cited from earlier work
[3] = tested on: embryonal fibroblasts; test: Synthesis of dermal macromolecules in fibroblast cultures in collagen gel (embryonal fibroblasts); assay type: cell-based, human; conditions: increase based on the blank value (absence of hormone), average of the two measuring conditions
[4] = tested on: human skin cells; conditions: differentiation of human skin cells; cited from earlier work
[5] = tested on: epidermis; conditions: topical application, axillae of relatively old males; Kligman et al.; cited from earlier work

SMILES: C[C@]12CCC(=O)C[C@@H]1CC[C@@H]1[C@@H]2CC[C@]2(C)[C@@H](O)CC[C@@H]12 [DHT, dihydrotestosterone]
- Increase in the synthesis of macromolecules: Elastin [1]: +552 %-rel.
- Increase in the synthesis of macromolecules: Heparan sulfate [1]: +486 %-rel.
- DNA or protein distribution in the target cell [2]: does not affect

SMILES: C[C@]12CC[C@H]3[C@@H](CCC4=CC(=O)CC[C@@]43C)[C@@H]1CC[C@@H]2O [T (soluble), testosterone]
- Increase in the synthesis of macromolecules: Chondroitin sulfate [3]: +23 %-rel.
- Increase in the synthesis of macromolecules: Collagen [3]: +17 %-rel.
- Increase in the synthesis of macromolecules: Elastin [3]: +11 %-rel.

SMILES: C[C@]12CC[C@H]3[C@@H](CCC4=CC(=O)CC[C@@]43C)[C@@H]1CC[C@@H]2O [T, testosterone]
- Increase in the synthesis of macromolecules: Chondroitin sulfate [1]: +537 %-rel.
- Increase in the synthesis of macromolecules: Elastin [1]: +2753 %-rel.
- Increase in the synthesis of macromolecules: Keratan sulfate [1]: +83 %-rel.
- reduction of granular cells, keratohyalin granules and keratinosomes [4]: does counteract the reduction

SMILES: CCC(=O)O[C@H]1CC[C@H]2[C@@H]3CCC4=CC(=O)CC[C@]4(C)[C@H]3CC[C@]12C [testosterone propionate]
- strength of the epidermis [5]: increases the strength of the epidermis
